System: not listed separately
Assay: in vitro
Design: CellTiter-Glo cell viability, compound alone
Settings: mouse, hei-oc1 cells; compound alone; read-out: LD50 (μM) in HEI cells
Text: For this screen, caspase-3 cleavage was chosen as the endpoint indicating cisplatin-induced cell death, as it allowed the inhibition of cell death to be monitored at the level of any intracellular molecular target upstream of caspase-3 cleavage in the HEI-OC1 cell line ([Kalinec et al., 2003]; [Kim et al., 2010]). […] This screen has been described in detail elsewhere ([Teitz et al., 2016]). Assays were first optimized at the bench. Optimized aspects included the number of cells to be plated (1,600 cells/well), the cisplatin concentration (50 µM, based on the dose–response curve), the incubation time (22 h at 33°C in 10% CO2), and the concentration of pifithrin-α (17 µM). The Caspase-Glo 3/7 assay (Promega), which enables the measurement of light emitted as the result of caspase cleavage and is suitable for HTS, was used. The linearity of the Caspase-Glo 3/7 assay was validated, and it was verified that 0.5% DMSO had no effect on the cell death kinetics ([Hall et al., 2014]). Compound toxicity was tested by cell viability assay CellTiter-Glo (Promega) with compound alone. The Caspase-Glo 3/7 assay was then tested for reproducibility in the St. Jude robotic systems in 384-well plates (white, solid-bottom, tissue culture–treated, polystyrene plates; Corning). By using a pin tool, test compounds dissolved in DMSO were added to the screen to a final concentration of 8 µM, and cisplatin solution in PBS was added 2 min later to each well to a final concentration of 50 µM (in <0.5% DMSO; Fig. S1 A). The cells were incubated with the test compounds and cisplatin for 22 h at 33°C in 10% CO2, with the medium being as previously described ([Kalinec et al., 2003]); no γ IFN was added to slow the cells’ growth rate and to mimic as closely as possible the conditions of postmitotic, nondividing sensory epithelial (organ of Corti) cells. The 384-well plates were shaken and centrifuged after compound addition to enhance the reprod  Figure 1. […] (A) Screening of a bioactive compound library of 4,385 unique compounds, including 845 FDA-approved drugs, in HEI-OC1 cells. Cells treated with 50 µM cisplatin (red dots) were assigned 100% caspase-3/7 activity. Cells not treated with cisplatin, i.e., those grown in medium only (black dots) were assigned 0% caspase-3/7 activity. Each compound was added to a final concentration of 8 µM in the presence of 50 µM cisplatin (cyan dots). The cell-based screen mean Z′ was 0.75, the signal window was 12, and the signal fold change was 4.9. […] The caspase-3/7 IC50 activity and structure are indicated for each compound. Error bars: SEM. […] Phalloidin labels the HCs. (I–K) OHC survival (percentage; mean ± SEM) after treatment with various concentrations of compounds and/or cisplatin (CIS). The number of cochlear explants analyzed is indicated in each bar. *, P < 0.05 and **, P < 0.01 by one-way ANOVA followed by a Bonferroni comparison. We identified 177 hits that reduced cisplatin-induced caspase-3/7 activity by 60% or more. These compounds were further validated and characterized by dose-responsive analysis for potency and toxicity in HEI-OC1 cells; toxicity was assessed by a cell viability assay (CellTiter-Glo) with the test compounds alone (Fig. 1, B–D; and Fig. S1, E–K). The top 10 hits in this screen (with IC50 values in the HEI-OC1 cells of 0.04–6.2 µM) and their protective properties, as investigated in this study, are summarized in Table S1. The FDA has approved three of the compounds (leflunomide, [compound left out], and olsalazine sodium) for treating other medical conditions.

`CCCCCC[C@H]1C(=O)O[C@H](C)[C@H](NC(=O)c2cccc(NC=O)c2O)C(=O)O[C@@H](C)[C@@H]1OC(=O)CC(C)C` [Antimycin A] and `CC[C@H](CO)Nc1nc(NCc2ccccc2O)c2ncn(C(C)C)c2n1` [Olomoucine II] cannot be ordered by CC50 at 22 h: greater than 10 µM for the first, greater than 40 µM for the second.

`NS(=O)(=O)c1ccc(N=Nc2c(O)[nH]c3ccc(Br)cc23)cc1` [CDK2 inhibitor II] and `O=C1Cc2c([nH]c3ccc(Br)cc23)-c2ccccc2N1` [kenpaullone] cannot be ordered by CC50 at 22 h: greater than 40 µM for the first, greater than 40 µM for the second.

`O=c1cc(CN2CCOCC2)occ1OCCCCCSc1ccnc2cc(C(F)(F)F)ccc12` [EHT1864] and `Cc1oncc1C(=O)Nc1ccc(C(F)(F)F)cc1` [Leflunomide] cannot be ordered by CC50 at 22 h: greater than 20 µM for the first, greater than 40 µM for the second.

`O=C(O)c1cc(/N=N/c2ccc(O)c(C(=O)O)c2)ccc1O` [Olsalazine sodium] and `CCOc1cc2ncc(C#N)c(Nc3ccc(F)c(Cl)c3)c2cc1NC(=O)/C=C/CN(C)C` [Pelitinib] cannot be ordered by CC50 at 22 h: greater than 40 µM for the first, greater than 40 µM for the second.

Target: CDK2 (Mus musculus, UniProt P97377)
Assay: immunoprecipitated CDK2 kinase assay, […]histone H1 substrate; cisplatin-treated cells ([…] from untreated cells)
Format: biochemical
Settings: not given

For `O=C1Cc2c([nH]c3ccc(Br)cc23)-c2ccccc2N1` [kenpaullone], the IC50 was 1.7 ± 0.9 µM.

Source: paper PMC5881471, “CDK2 inhibitors as candidate therapeutics for cisplatin- and noise-induced hearing loss” (The Journal of Experimental Medicine, 2018)
